Laboratory results taken from EP4763839A1 (Pamplona Therapeutics (Shenzhen) Co., Ltd., priority 2023, dated 2025).
Where a name gives a salt, the structure may show the parent alone. Read-outs that look alike come from different tables or passages of the source.

Molecular target: T1, IRAK4 (Homo sapiens, UniProt Q9NWZ3)
T1 sequence (Q9NWZ3 1-460): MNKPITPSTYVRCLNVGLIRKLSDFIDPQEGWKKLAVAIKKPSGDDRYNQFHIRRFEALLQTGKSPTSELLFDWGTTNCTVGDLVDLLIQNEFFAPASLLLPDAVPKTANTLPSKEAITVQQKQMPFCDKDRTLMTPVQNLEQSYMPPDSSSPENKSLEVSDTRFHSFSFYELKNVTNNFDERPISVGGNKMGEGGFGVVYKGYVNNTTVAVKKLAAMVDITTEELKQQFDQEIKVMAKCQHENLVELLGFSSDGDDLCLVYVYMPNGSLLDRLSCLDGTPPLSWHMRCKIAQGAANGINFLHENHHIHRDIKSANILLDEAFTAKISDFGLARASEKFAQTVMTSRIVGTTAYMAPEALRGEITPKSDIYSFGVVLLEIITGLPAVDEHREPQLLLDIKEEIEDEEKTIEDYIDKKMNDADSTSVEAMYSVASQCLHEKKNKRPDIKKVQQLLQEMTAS
Experiment: Degradation of IRAK4 in THP1 cells, Western blot
Type: cell-based
Parameters: Degradation of IRAK4 in THP1 by compound; host or cells: THP-1
Settings: THP-1 cells, 24 hours of incubation; for DC50: IRAK4 protein by Western blot, read-out: DC50; for Dmax: maximum degradation rate
Outline: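 THP1 cells treated 24 h, lysed; lysates normalised by BCA, 40 μg protein per lane on 10% SDS-PAGE, anti-IRAK4 Western blot with chemiluminescence detection.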

SMILES | DC50 | Dmax (read-out: Dmax) | Dmax
CC(C)(O)c1nn(-c2ccc(N3CCN(CC4CCN(c5ccc(NC6CCC(=O)NC6=O)cc5F)CC4)CC3)cc2)cc1NC(=O)c1cncc(C#N)c1 (centres unmarked) [Compound A385, 5-Cyano-N-(1-(4-(4-((1-(4-((2,6-dioxopiperidin-3-yl)amino)-2-fluorophenyl)piperidin-4-yl)methyl)piperazin-1-yl)phenyl)-3-(2-hydroxypropan-2-yl)-1H-pyrazol-4-yl)nicotinamide] | > 1000 nM | < 40% | –
NC(=O)c1nn([C@H]2CC[C@H](N3CCN(CC4CN(c5ccc(N6CCC(=O)NC6=O)cc5)C4)CC3)CC2)cc1NC(=O)c1cccc(C(F)(F)F)n1 [Compound A403, N-(3-Carbamoyl-1-((1r,4r)-4-(4-((1-(4-(2,4-dioxotetrahydropyrimidin-1(2H)-yl)phenyl)azetidin-3-yl)methyl)piperazin-1-yl)cyclohexyl)-1H-pyrazol-4-yl)-6-(trifluoromethyl)picolinamide] | < 100 nM | 40 to 60% | –
Cn1c(=O)n(C2CCC(=O)NC2=O)c2cccc(N3CCC4(CC3)CN(C(=O)Cc3ccc(-n5cc(NC(=O)c6cccc(C(F)(F)F)n6)c(C(N)=O)n5)cc3)C4)c21 (centres unmarked) [Compound A321, N-(3-Carbamoyl-1-(4-(2-(7-(1-(2,6-dioxopiperidin-3-yl)-3-methyl-2-oxo-2,3-dihydro-1H-benzimidazol-4-yl)-2,7-diazaspiro[3.5]nonan-2-yl)-2-oxoethyl)phenyl)-1H-pyrazol-4-yl)-6-(trifluoromethyl)picolinamide] | < 100 nM | > 60% | –
Cn1c(=O)n(C2CCC(=O)NC2=O)c2cccc(N3CCC(N4CCN(Cc5ccc(-n6cc(NC(=O)c7cccc(C(F)(F)F)n7)c(C(N)=O)n6)cc5)CC4)CC3)c21 (centres unmarked) [Compound A373, N-(3-Carbamoyl-1-(4-(4-(1-(1-(2,6-dioxopiperidin-3-yl)-3-methyl-2-oxo-2,3-dihydro-1H-benzo[d]imidazol-4-yl)piperidin-4-yl)piperazin-1-yl)methyl)phenyl)-1H-pyrazol-4-yl)-6-(trifluoromethyl)picolinamide formate] | < 100 nM | > 60% | –
NC(=O)c1nn(-c2ccc(COC3CC4(CCN(CC5CCN(c6ccc(NC7CCC(=O)NC7=O)cc6F)CC5)CC4)C3)cc2)cc1NC(=O)c1cccc(C(F)(F)F)n1 (centres unmarked) [Compound A317, N-(3-Carbamoyl-1-(4-(((7-((1-(4-((2,6-dioxopiperidin-3-yl)amino)-2-fluorophenyl)piperidin-4-yl)methyl)-7-azaspiro[3.5]nonan-2-yl)oxy)methyl)phenyl)-1H-pyrazol-4-yl)-6-(trifluoromethyl)picolinamide] | < 100 nM | > 60% | –
CN(Cc1ccc(-n2cc(NC(=O)c3cccc(C(F)(F)F)n3)c(C(N)=O)n2)cc1)C1CC2(CCN(c3cccc4c3n(C)c(=O)n4C3CCC(=O)NC3)CC2)C1 (centres unmarked) [Compound A315] | 100 to 1000 nM | – | A (A represents Dmax > 60%)
Cn1c(=O)n(C2CCC(=O)NC2=O)c2cccc(N3CCC(CN4CCN(c5ccc(-n6cc(NC(=O)c7cccc(C(F)(F)F)n7)c(C(=O)NC7CC7)n6)cc5)CC4)CC3)c21 (centres unmarked) [Compound A369, N-{3-[(cyclopropylamino)carbonyl]-1-{4-[4-({1-[1-(2,6-dioxopiperidin-3-yl)-3-methyl-2-oxobenzo[d]imidazol-4-yl]piperidin-4-yl}methyl)piperazin-1-yl]phenyl}pyrazol-4-yl}-6-(trifluoromethyl)pyridine-2-carboxamide formate] | < 100 nM | > 60% | –
Cn1c(=O)n(C2CCC(=O)NC2=O)c2cccc(C#CCOC3CN(Cc4ccc(-n5cc(NC(=O)c6cccc(-c7ccn[nH]7)n6)c(S(N)(=O)=O)n5)cc4)C3)c21 (centres unmarked) [Compound A351, N-(1-(4-((3-((3-(1-(2,6-dioxopiperidin-3-yl)-3-methyl-2-oxo-2,3-dihydro-1H-benzo[d]imidazol-4-yl)prop-2-yn-1-yl)oxy)azetidin-1-yl)methyl)phenyl)-3-sulfamoyl-1H-pyrazol-4-yl)-6-(1H-pyrazol-5-yl)picolinamide] | 100 to 1000 nM | 40 to 60% | –
NC(=O)c1nn(-c2ccc(N3CCN(C(=O)C4CN(c5cc(F)c(C6CCC(=O)NC6=O)c(F)c5)C4)CC3)cc2)cc1NC(=O)c1cccc(C(F)(F)F)n1 (centres unmarked) [Compound A411, N-(3-carbamoyl-1-(4-(4-(1-(4-(2,6-dioxopiperidin-3-yl)-3,5-difluorophenyl)azetidine-3-carbonyl)piperazin-1-yl)phenyl)-1H-pyrazol-4-yl)-6-(trifluoromethyl)picolinamide] | < 100 nM | > 60% | –
CC(C)(O)c1nn(-c2ccc(N3CCN(CC4CCN(c5ccc(NC6CCC(=O)NC6=O)cc5F)CC4)CC3)cc2)cc1NC(=O)c1cccc(C#N)n1 (centres unmarked) [Compound A386, 6-Cyano-N-(1-(4-(4-((1-(4-((2,6-dioxopiperidin-3-yl)amino)-2-fluorophenyl)piperidin-4-yl)methyl)piperazin-1-yl)phenyl)-3-(2-hydroxypropan-2-yl)-1H-pyrazol-4-yl)picolinamide] | > 1000 nM | < 40% | –
Cn1c(=O)n(C2CCC(=O)NC2=O)c2cccc(N3CCC4(CC3)CC(NC(=O)c3ccc(-n5cc(NC(=O)c6cccc(C(F)(F)F)n6)c(C(N)=O)n5)cc3)C4)c21 (centres unmarked) [Compound A320] | < 100 nM | > 60% | –
Cn1c(-c2ccc(N3CCC(CCN4CCN(c5ccc(-n6cc(NC(=O)c7cccc(C(F)(F)F)n7)c(C(N)=O)n6)cc5)CC4)C3)cc2)nn(C2CCC(=O)NC2=O)c1=O (centres unmarked) [Compound A185] | < 100 nM | 40 to 60% | –
Cn1c(=O)n(C2CCC(=O)NC2=O)c2cccc(N3CCC(CCN4CCN(c5ccc(-n6cc(NC(=O)c7cccc(-c8ccn[nH]8)n7)c(S(N)(=O)=O)n6)cc5)CC4)CC3)c21 (centres unmarked) [Compound A350, N-(1-(4-(4-(2-(1-(1-(2,6-Dioxopiperidin-3-yl)-3-methyl-2-oxo-2,3-dihydro-1H-benzo[d]imidazol-4-yl)piperidin-4-yl)ethyl)piperazin-1-yl)phenyl)-3-sulfamoyl-1H-pyrazol-4-yl)-6-(1H-pyrazol-5-yl)picolinamide] | < 100 nM | > 60% | –

More lines, main results first:

DC50 | Dmax (read-out: Dmax) | SMILES | Dmax
< 100 nM | > 60% | CC(C)(O)c1nn(-c2ccc(N3CCN(C4CCN(c5ccc(C(=O)NC6CCC(=O)NC6=O)cc5F)CC4)CC3)cc2)cc1NC(=O)c1cccc(C(F)(F)F)n1 (centres unmarked) [Compound A443, N-(1-(4-(4-(1-(4-((2,6-dioxopiperidin-3-yl)carbamoyl)-2-fluorophenyl)piperidin-4-yl)piperazin-1-yl)phenyl)-3-(2-hydroxypropan-2-yl)-1H-pyrazol-4-yl)-6-(trifluoromethyl)picolinamide] | –
100 to 1000 nM | 40 to 60% | NC(=O)c1nn(-c2ccc(N3CCN(CC4CCN(c5ccc(NC6CCC(=O)NC6=O)cc5F)C4)CC3)cc2)cc1NC(=O)c1cccc(C(F)(F)F)n1 (centres unmarked) [Compound A361, N-(3-Carbamoyl-1-(4-(4-((1-(4-((2,6-dioxopiperidin-3-yl)amino)-2-fluorophenyl)pyrrolidin-3-yl)methyl)piperazin-1-yl)phenyl)-1H-pyrazol-4-yl)-6-(trifluoromethyl)picolinamide formate] | –
< 100 nM | > 60% | NC(=O)c1cn(-c2ccc(N3CCN(C4CCN(c5ccc(C(=O)NC6CCC(=O)NC6=O)nc5)CC4)CC3)cc2)cc1NC(=O)c1cccc(C(F)(F)F)n1 (centres unmarked) [Compound A452, N-(4-Carbamoyl-1-(4-(4-(1-(6-((2,6-dioxopiperidin-3-yl)carbamoyl)pyridin-3-yl)piperidin-4-yl)piperazin-1-yl)phenyl)-1H-pyrrol-3-yl)-6-(trifluoromethyl)picolinamide] | –
< 100 nM | > 60% | NC(=O)c1nn(-c2ccc(N3CCN(C4CCN(c5ccc(C(=O)NC6CCC(=O)NC6=O)cc5F)CC4)CC3)cc2)cc1NC(=O)c1cccc(C(F)(F)F)n1 (centres unmarked) [Compound A378, 1-(4-{4-[1-(4-{[(2,6-Dioxopiperidin-3-yl)amino]carbonyl}-2-fluorophenyl)piperidin-4-yl]piperazin-1-yl}phenyl)-4-({[6-(trifluoromethyl)pyridin-2-yl]carbonyl}amino)pyrazole-3-carboxamide] | –
< 100 nM | > 60% | NC(=O)c1nn(-c2ccc(N3CCN(CC4CCN(c5ccc(NC6CCC(=O)NC6=O)cn5)CC4)CC3)cc2)cc1NC(=O)c1cccc(C(F)(F)F)n1 (centres unmarked) [Compound A396, N-(3-Carbamoyl-1-(4-(4-((1-(5-((2,6-dioxopiperidin-3-yl)amino)pyridin-2-yl)piperidin-4-yl)methyl)piperazin-1-yl)phenyl)-1H-pyrazol-4-yl)-6-(trifluoromethyl)picolinamide] | –
< 100 nM | > 60% | CC(C)(O)c1nn(-c2ccc(N3CCN(C4CCN(c5ccc(NC6CCC(=O)NC6=O)cc5F)CC4)CC3)cc2)cc1NC(=O)c1cccc(C(F)(F)F)n1 (centres unmarked) [Compound A439, N-(1-(4-(4-(1-(-4-((2,6-Dioxopiperidin-3-yl)amino)-2-fluorophenyl)piperidin-4-yl)piperazin-1-yl)phenyl)-3-(2-hydroxypropan-2-yl)-1H-pyrazol-4-yl)-6-(trifluoromethyl)picolinamide] | –
